Test results as given in the kinase profiling compilation of Christmann-Franck et al. (2016).

What was measured:
Test in all cases: SelectScreen, TR FRET
Settings in all cases: compound 5.0 µM
[1] = test system: ABL1 (human), P00519 [E255K]
ADRBK2 (human) = ADRBK2 (human) (UniProt P35626)
ALK (human) = ALK (human) (UniProt Q9UM73)
AURKB (human) = AURKB (human) (UniProt Q96GD4)
CHEK2 (human) = CHEK2 (human) (UniProt O96017)
CSNK1E (human) = CSNK1E (human) (UniProt P49674)
CSNK1G2 (human) = CSNK1G2 (human) (UniProt P78368)
CSNK1G3 (human) = CSNK1G3 (human) (UniProt Q9Y6M4)
DYRK3 (human) = DYRK3 (human) (UniProt O43781)
DYRK3 (human), sequence (O43781 whole entry, looked up): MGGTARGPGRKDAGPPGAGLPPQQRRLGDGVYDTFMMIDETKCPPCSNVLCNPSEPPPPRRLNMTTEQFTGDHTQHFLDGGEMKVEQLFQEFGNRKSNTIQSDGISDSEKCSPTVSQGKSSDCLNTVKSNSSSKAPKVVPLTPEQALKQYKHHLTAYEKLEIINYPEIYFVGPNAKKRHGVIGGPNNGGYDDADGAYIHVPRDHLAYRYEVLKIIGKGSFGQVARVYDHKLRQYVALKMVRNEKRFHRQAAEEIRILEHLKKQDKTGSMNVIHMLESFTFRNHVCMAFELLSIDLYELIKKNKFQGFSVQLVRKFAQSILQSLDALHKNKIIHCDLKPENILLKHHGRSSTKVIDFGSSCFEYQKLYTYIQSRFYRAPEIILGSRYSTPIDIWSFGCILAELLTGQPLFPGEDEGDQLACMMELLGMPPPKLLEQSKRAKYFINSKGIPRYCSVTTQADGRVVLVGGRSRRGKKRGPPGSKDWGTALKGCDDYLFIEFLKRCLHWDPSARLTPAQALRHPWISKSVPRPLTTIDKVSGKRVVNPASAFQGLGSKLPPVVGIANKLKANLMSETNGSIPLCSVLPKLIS

EGFR (human) = EGFR (human) (UniProt P00533)
EPHA8 (human) = EPHA8 (human) (UniProt P29322)
EPHA8 (human), sequence (P29322 whole entry, looked up): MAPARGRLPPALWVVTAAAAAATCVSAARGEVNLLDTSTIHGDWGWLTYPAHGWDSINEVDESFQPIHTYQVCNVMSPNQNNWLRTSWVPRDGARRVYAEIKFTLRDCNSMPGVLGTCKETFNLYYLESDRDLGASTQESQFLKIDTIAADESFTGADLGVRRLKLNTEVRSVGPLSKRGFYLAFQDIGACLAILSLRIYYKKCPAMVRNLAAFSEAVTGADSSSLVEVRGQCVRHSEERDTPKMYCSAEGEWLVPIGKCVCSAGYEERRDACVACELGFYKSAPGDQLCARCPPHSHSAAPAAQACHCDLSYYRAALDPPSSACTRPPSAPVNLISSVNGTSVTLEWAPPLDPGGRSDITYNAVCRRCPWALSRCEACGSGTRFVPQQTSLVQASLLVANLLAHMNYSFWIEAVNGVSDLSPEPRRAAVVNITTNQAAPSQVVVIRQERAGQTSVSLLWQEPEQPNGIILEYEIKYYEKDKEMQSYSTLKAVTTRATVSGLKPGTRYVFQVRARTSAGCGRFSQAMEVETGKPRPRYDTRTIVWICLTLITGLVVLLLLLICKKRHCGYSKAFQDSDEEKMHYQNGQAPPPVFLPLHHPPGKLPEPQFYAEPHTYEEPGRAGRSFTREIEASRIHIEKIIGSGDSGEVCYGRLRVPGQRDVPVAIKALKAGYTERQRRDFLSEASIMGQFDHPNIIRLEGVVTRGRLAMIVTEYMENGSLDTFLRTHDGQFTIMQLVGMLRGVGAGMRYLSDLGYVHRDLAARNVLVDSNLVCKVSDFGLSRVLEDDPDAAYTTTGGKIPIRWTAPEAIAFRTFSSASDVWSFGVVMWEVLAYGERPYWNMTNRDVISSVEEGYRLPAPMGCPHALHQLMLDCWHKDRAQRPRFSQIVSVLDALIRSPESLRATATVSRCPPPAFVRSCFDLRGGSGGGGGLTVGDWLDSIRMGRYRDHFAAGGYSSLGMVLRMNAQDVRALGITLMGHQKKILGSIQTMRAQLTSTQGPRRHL

FER (human) = FER (human) (UniProt P16591)
FGFR1 (human) = FGFR1 (human) (UniProt P11362)
FLT3 (human) = FLT3 (human) (UniProt P36888)
FLT4 (human) = FLT4 (human) (UniProt P35916)
GSK3A (human) = GSK3A (human) (UniProt P49840)
HCK (human) = HCK (human) (UniProt P08631)
KIT (human) = KIT (human) (UniProt P10721)
LCK (human) = LCK (human) (UniProt P06239)
MAP4K2 (human) = MAP4K2 (human) (UniProt Q12851)
MAPK12 (human) = MAPK12 (human) (UniProt P53778)
MAPK13 (human) = MAPK13 (human) (UniProt O15264)
MAPK14 (human) = MAPK14 (human) (UniProt Q16539)
MINK1 (human) = MINK1 (human) (UniProt Q8N4C8)
NTRK1 (human) = NTRK1 (human) (UniProt P04629)
NTRK3 (human) = NTRK3 (human) (UniProt Q16288)
NTRK3 (human), sequence (Q16288 whole entry, looked up): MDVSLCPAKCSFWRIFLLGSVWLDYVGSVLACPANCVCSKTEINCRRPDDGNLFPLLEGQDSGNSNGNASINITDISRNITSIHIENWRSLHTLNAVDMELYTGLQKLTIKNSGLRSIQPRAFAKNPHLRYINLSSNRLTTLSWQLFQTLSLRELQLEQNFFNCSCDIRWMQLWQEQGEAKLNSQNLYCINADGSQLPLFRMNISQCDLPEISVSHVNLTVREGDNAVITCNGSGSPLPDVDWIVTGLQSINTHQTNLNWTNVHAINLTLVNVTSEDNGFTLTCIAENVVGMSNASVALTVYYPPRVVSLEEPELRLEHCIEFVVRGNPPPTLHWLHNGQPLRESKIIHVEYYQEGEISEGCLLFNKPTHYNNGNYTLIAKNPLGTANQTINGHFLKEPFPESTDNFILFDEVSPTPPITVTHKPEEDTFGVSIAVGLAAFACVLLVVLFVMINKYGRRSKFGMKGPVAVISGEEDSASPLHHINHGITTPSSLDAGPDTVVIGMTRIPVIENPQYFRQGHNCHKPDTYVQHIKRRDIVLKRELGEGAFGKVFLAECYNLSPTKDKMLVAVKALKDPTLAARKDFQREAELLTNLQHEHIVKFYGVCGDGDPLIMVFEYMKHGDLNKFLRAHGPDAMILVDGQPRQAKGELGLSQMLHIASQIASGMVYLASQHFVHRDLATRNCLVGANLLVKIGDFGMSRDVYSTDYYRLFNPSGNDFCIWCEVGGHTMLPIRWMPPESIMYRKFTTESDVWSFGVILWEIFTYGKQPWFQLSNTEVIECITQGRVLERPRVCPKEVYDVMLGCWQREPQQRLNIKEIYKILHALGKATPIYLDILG

PASK (human) = PASK (human) (UniProt Q96RG2)
PHKG1 (human) = PHKG1 (human) (UniProt Q16816)
PIM1 (human) = PIM1 (human) (UniProt P11309)
PKN1 (human) = PKN1 (human) (UniProt Q16512)
PLK1 (human) = PLK1 (human) (UniProt P53350)
PLK3 (human) = PLK3 (human) (UniProt Q9H4B4)
PRKCA (human) = PRKCA (human) (UniProt P17252)
PRKCB2 (human) = PRKCB2 (human) (UniProt P05771)
PRKD1 (human) = PRKD1 (human) (UniProt Q15139)
PRKD1 (human), sequence (Q15139 whole entry, looked up): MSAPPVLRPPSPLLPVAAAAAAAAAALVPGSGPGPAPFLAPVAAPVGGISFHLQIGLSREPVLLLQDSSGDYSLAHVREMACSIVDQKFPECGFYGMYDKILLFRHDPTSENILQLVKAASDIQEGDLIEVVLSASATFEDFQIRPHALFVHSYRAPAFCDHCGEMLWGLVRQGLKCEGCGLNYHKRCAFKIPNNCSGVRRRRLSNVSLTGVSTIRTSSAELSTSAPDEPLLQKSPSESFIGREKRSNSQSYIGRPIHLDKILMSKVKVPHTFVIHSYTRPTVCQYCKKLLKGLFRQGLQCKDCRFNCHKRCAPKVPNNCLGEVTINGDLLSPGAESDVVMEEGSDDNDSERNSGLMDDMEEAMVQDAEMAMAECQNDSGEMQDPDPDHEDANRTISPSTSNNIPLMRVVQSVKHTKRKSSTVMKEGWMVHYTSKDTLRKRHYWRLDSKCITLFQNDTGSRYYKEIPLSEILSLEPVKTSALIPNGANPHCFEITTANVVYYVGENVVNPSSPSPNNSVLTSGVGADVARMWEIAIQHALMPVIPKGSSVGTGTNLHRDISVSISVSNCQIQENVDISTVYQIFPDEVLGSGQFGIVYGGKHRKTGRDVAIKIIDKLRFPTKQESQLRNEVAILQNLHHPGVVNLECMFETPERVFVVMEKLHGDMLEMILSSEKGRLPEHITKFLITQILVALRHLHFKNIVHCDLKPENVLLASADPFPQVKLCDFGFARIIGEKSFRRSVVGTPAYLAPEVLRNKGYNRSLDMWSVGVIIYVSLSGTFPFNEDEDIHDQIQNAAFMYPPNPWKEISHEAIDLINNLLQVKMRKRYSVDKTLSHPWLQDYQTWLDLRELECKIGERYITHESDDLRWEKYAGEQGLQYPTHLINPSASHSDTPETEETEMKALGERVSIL

PRKX (human) = PRKX (human) (UniProt P51817)
RPS6KA4 KD1 KD2 (human) = RPS6KA4 KD1 KD2 (human) (UniProt O75676)
SGK3 (human) = SGK3 (human) (UniProt Q96BR1)
TAOK2 (human) = TAOK2 (human) (UniProt Q9UL54)
TEK (human) = TEK (human) (UniProt Q02763)
TYRO3 (human) = TYRO3 (human) (UniProt Q06418)
TYRO3 (human), sequence (Q06418 whole entry, looked up): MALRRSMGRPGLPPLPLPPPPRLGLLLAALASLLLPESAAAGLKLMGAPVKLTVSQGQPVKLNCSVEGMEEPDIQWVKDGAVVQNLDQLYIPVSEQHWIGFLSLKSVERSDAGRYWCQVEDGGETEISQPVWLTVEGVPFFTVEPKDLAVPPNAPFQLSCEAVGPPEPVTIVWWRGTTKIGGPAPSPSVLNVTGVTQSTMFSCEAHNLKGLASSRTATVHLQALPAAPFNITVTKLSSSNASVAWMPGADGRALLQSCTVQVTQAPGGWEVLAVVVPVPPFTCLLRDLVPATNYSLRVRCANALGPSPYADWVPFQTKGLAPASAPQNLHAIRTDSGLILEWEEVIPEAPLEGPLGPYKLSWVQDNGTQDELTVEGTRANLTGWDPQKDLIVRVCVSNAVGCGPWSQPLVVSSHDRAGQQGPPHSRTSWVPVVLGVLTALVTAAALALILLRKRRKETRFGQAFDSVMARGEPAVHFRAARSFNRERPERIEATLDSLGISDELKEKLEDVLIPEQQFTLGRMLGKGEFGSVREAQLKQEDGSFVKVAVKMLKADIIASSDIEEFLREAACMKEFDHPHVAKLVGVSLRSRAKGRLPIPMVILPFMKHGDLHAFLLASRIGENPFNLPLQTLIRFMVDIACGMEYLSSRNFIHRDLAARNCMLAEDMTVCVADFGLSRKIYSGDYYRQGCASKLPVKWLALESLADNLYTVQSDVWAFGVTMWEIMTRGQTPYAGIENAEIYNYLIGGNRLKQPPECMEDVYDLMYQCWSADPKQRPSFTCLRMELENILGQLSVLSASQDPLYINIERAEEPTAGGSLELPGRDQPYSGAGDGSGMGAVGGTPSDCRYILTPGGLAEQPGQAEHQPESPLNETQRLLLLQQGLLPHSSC

CHEK2 (human), sequence (O96017 whole entry, looked up): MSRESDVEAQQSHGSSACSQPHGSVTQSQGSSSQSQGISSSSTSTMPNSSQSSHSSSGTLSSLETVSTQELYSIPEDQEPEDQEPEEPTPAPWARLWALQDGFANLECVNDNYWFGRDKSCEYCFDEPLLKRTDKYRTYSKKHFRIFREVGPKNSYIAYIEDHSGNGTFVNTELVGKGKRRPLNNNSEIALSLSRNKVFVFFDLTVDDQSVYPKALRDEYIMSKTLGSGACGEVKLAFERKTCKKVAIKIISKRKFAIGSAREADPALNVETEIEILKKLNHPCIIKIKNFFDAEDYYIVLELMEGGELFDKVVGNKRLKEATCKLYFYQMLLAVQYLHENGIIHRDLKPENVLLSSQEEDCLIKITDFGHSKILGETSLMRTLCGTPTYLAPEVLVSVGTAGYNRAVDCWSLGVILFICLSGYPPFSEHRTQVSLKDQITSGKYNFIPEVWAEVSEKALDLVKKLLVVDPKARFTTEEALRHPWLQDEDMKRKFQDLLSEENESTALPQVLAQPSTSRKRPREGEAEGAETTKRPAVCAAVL

inhibition [1]: -4% | inhibition (ADRBK2 (human)): 2% | inhibition (ALK (human)): 1% | inhibition (AURKB (human)): 11% | inhibition (CHEK2 (human)): 17% | inhibition (CSNK1E (human)): 11% | inhibition (CSNK1G2 (human)): 0% | inhibition (CSNK1G3 (human)): -3% | inhibition (DYRK3 (human)): 11% | inhibition (EGFR (human)): 3% | inhibition (EPHA8 (human)): 3% | inhibition (FER (human)): 1% | inhibition (FGFR1 (human)): 4% | inhibition (FLT3 (human)): 18% | inhibition (FLT4 (human)): 2% | inhibition (GSK3A (human)): 5% | inhibition (HCK (human)): 10% | inhibition (KIT (human)): 39% | inhibition (LCK (human)): 7% | inhibition (MAP4K2 (human)): 6% | inhibition (MAPK12 (human)): 3% | inhibition (MAPK13 (human)): 2% | inhibition (MAPK14 (human)): 4% | inhibition (MINK1 (human)): 4% | inhibition (NTRK1 (human)): 9% | inhibition (NTRK3 (human)): 4% | inhibition (PASK (human)): -1% | inhibition (PHKG1 (human)): 11% | inhibition (PIM1 (human)): 6% | inhibition (PKN1 (human)): 9% | inhibition (PLK1 (human)): 1% | inhibition (PLK3 (human)): 1% | inhibition (PRKCA (human)): 4% | inhibition (PRKCB2 (human)): 8% | inhibition (PRKD1 (human)): 5% | inhibition (PRKX (human)): 0% | inhibition (RPS6KA4 KD1 KD2 (human)): 6% | inhibition (SGK3 (human)): 20% | inhibition (TAOK2 (human)): 6% | inhibition (TEK (human)): 5% | inhibition (TYRO3 (human)): 3%
Compound: Nc1cc(C(F)(F)F)c(-c2cc(N3CCOCC3)nc(N3CCOCC3)n2)cn1
